Assay results taken from US10322097B2, “Treatment of subjects with multidrug-resistant cancer” (priority 2015, dated 2019).
pIC50: −log10 of the molar value. In brackets after ≈: the same amount, converted by molar mass. Like-named read-outs stand apart in the source and are kept apart here.

Key:
[1] = tested on: HCT116 p53+/+ colon cancer cells; assay: MTT cytotoxicity assay, HCT116 p53+/+; type: cell-based; conditions: read-out: IC50 HCT116 p53+/+ colon cancer cells
Description: (§1) Cell cultures and cytotoxicity assays have been used. Celastrol was dissolved in DMSO at a final concentration of 100 mmol/L and stored at −20° C. Cytotoxicity was assessed using the 3-(4,5-dimethylthiazol-2-yl)-2,5-diphenyltetrazolium bromide assay. 4000 cells from HCT116 p53^+/+ or p53^−/− colon cancer cells and DLD-1 Bax-Bak^+/+ or Bax-Bak^−/− colon cancer cells were seeded on 96-well plates per well. […] Subsequently, 10 μL of MTT reagents were added to each well and incubated at 37° C. for 4 hours followed by the addition of 100 μL solubilization buffer (10% SDS in 0.01 mol/L HCl) and overnight incubation. […] The percentage of cell viability was calculated using the following formula: Cell viability (%)=Cells number treated/Cells number DMSO control×100. Data were obtained from three independent experiments.

[2] = tested on: HCT116 p53-/- colon cancer cells; assay: MTT cytotoxicity assay, HCT116 p53-/-; type: cell-based; conditions: for Resistant Factor: IC50 HCT116 p53-/- divided by IC50 HCT116 p53+/+; for pIC50: read-out: IC50 HCT116 p53-/- colon cancer cells
Description: as §1

[3] = tested on: DLD-1 Bax-Bak+/+ colon cancer cells; assay: MTT cytotoxicity assay, DLD-1 Bax-Bak+/+; type: cell-based; conditions: MTT, 3 days
Description: as §1

[4] = tested on: DLD-1 Bax-Bak-/- colon cancer cells; assay: MTT cytotoxicity assay, DLD-1 Bax-Bak-/-; type: cell-based; conditions: for Resistant Factor: IC50 DLD-1 Bax-Bak-/- divided by IC50 DLD-1 Bax-Bak+/+
Description: as §1

[5] = tested on: A2780 (Ovary) cisplatin sensitive cancer cells; assay: MTT cytotoxicity assay, A2780 cisplatin sensitive; type: cell-based, human; conditions: MTT, 3 days; read-out: IC50 A2780 (Ovary) (Cisplatin sensitive)
Description: (§2) Cell cultures and cytotoxicity assays have been used. Celastrol was dissolved in DMSO at a final concentration of 100 mmol/L and stored at −20° C. Cytotoxicity was assessed using the 3-(4,5-dimethylthiazol-2-yl)-2,5-diphenyltetrazolium bromide assay. 4000 cells from A2780 cisplatin sensitive/resistant ovarian cancer cells or SGC-7901 cisplatin sensitive/resistant gastric cancer cells were seeded on 96-well plates per well. After overnight pre-incubation, the cells were exposed to different concentrations of celastrol (0.039-100 μmol/L) or cisplatin for 3 days. Subsequently, 10 μL of MTT reagents were added to each well and incubated at 37° C. for 4 hours followed by the addition of 100 μL solubilization buffer (10% SDS in 0.01 mol/L HCl) and overnight incubation. Absorbance at 585 nm was determined from each well the next day. The percentage of cell viability was calculated using the following formula: Cell viability (%)=Cells number treated/Cells number DMSO control×100. Data were obtained from three independent experiments.

[6] = tested on: A2780 (Ovary) cisplatin resistant cancer cells; assay: MTT cytotoxicity assay, A2780 cisplatin resistant; type: cell-based, human
Description: as §2

[7] = tested on: SGC-7901 (Gastric) cisplatin sensitive cancer cells; assay: MTT cytotoxicity assay, SGC-7901 cisplatin sensitive; type: cell-based, human; conditions: MTT, 3 days; read-out: IC50 SGC-7901 (Gastric) (Cisplatin sensitive)
Description: as §2

[8] = tested on: SGC-7901 (Gastric) cisplatin resistant cancer cells; assay: MTT cytotoxicity assay, SGC-7901 cisplatin resistant; type: cell-based, human
Description: as §2

[9] = tested on: MCF-7 (Breast) doxorubicin resistant cancer cells; assay: MTT cytotoxicity assay, MCF-7 doxorubicin resistant; type: cell-based, human
Description: as §2, with “MCF-7 doxorubicin” for “A2780 cisplatin”, “breast” for “ovarian”, “CEM doxorubicin” for “SGC-7901 cisplatin”, “leukemia” for “gastric cancer”, “doxorubicin” for “cisplatin”

[10] = tested on: A549 taxol-resistant lung cancer cells; assay: MTT cytotoxicity of taxol in presence or absence of celastrol; type: cell-based; conditions: Homo sapiens, A549, 72 h, 3 days
Description: Cell cultures and cytotoxicity assays have been carried out. Celastrol was dissolved in DMSO at a final concentration of 100 mmol/L and stored at −20° C. Cytotoxicity was assessed using the 3-(4,5-dimethylthiazol-2-yl)-2,5-diphenyltetrazolium bromide assay. 4000 cells from A549 taxol-resistant lung cancer cells were seeded on 96-well plates per well. After overnight pre-incubation, the cells were exposed to different concentrations of taxol (0.019-100 μmol/L) in the presence or absence of celastrol (0.5 μM) for 3 days. Subsequently, 10 μL of MTT reagents was added to each well and incubated at 37° C. for 4 hours followed by the addition of 100 μL solubilization buffer (10% SDS in 0.01 mol/L HCl) and overnight incubation. […] The percentage of cell viability was calculated using the following formula: Cell viability (%)=Cells number treated/Cells number DMSO control×100. Data were obtained from three independent experiments.

[11] = tested on: A549 (Lung) taxol sensitive cancer cells; assay: MTT cytotoxicity assay, A549 taxol sensitive; type: cell-based; conditions: Homo sapiens, A549, 72 h; MTT, 3 days; read-out: IC50 A549 (Lung) (Taxol sensitive)
Description: (§3) Cell cultures and cytotoxicity assays have been used. Celastrol was dissolved in DMSO at a final concentration of 100 mmol/L and stored at −20° C. Cytotoxicity was assessed using the 3-(4,5-dimethylthiazol-2-yl)-2,5-diphenyltetrazolium bromide assay. 4000 cells from A549 (lung), A2780 (ovary), HCT-8 (colon) and MCF-7 (breast) cancer cells were seeded on 96-well plates per well. After overnight pre-incubation, the cells were exposed to different concentrations of celastrol (0.039-100 μmol/L) or taxol for 3 days. Subsequently, 10 μL of MTT reagents was added to each well and incubated at 37° C. for 4 hours followed by the addition of 100 μL solubilization buffer (10% SDS in 0.01 mol/L HCl) and overnight incubation. Absorbance at 585 nm was determined from each well the next day. The percentage of cell viability was calculated using the following formula: Cell viability (%)=Cells number treated/Cells number DMSO control×100. Data were obtained from three independent experiments.

[12] = tested on: A549 (Lung) taxol resistant cancer cells; assay: MTT cytotoxicity assay, A549 taxol resistant; type: cell-based, human; conditions: for Resistant Factor: A549 taxol resistant versus taxol sensitive
Description: as §3

[13] = tested on: A2780 (Ovary) taxol sensitive cancer cells; assay: MTT cytotoxicity assay, A2780 taxol sensitive; type: cell-based; conditions: Homo sapiens, A2780, 72 h; MTT, 3 days; read-out: IC50 A2780 (Ovary) (Taxol sensitive)
Description: as §3

[14] = tested on: A2780 (Ovary) taxol resistant cancer cells; assay: MTT cytotoxicity assay, A2780 taxol resistant; type: cell-based, human; conditions: for Resistant Factor: A2780 taxol resistant versus taxol sensitive
Description: as §3

[15] = tested on: HCT-8 (Colon) taxol sensitive cancer cells; assay: MTT cytotoxicity assay, HCT-8 taxol sensitive; type: cell-based; conditions: Homo sapiens, HCT-8, 72 h; MTT, 3 days; read-out: IC50 HCT-8 (Colon) (Taxol sensitive)
Description: as §3

[16] = tested on: HCT-8 (Colon) taxol resistant cancer cells; assay: MTT cytotoxicity assay, HCT-8 taxol resistant; type: cell-based, human; conditions: for Resistant Factor: HCT-8 taxol resistant versus taxol sensitive
Description: as §3

[17] = tested on: MCF-7 (Breast) taxol sensitive cancer cells; assay: MTT cytotoxicity assay, MCF-7 taxol sensitive; type: cell-based; conditions: Homo sapiens, MCF7, 72 h; MTT, 3 days; read-out: IC50 MCF-7 (Breast) (Taxol sensitive)
Description: as §3

[18] = tested on: MCF-7 (Breast) taxol resistant cancer cells; assay: MTT cytotoxicity assay, MCF-7 taxol resistant; type: cell-based, human
Description: as §3

P-gp = P-gp (Homo sapiens, UniProt P08183); assay: Rho123 efflux assay in A549 taxol-resistant lung cancer cells (flow cytometry); conditions: 0.5 μM celastrol, pristimerin or dihydrocelastrol, or 10 μM verapamil, 24 h, then Rho123 1 h
Chain of P-gp (P08183 whole entry): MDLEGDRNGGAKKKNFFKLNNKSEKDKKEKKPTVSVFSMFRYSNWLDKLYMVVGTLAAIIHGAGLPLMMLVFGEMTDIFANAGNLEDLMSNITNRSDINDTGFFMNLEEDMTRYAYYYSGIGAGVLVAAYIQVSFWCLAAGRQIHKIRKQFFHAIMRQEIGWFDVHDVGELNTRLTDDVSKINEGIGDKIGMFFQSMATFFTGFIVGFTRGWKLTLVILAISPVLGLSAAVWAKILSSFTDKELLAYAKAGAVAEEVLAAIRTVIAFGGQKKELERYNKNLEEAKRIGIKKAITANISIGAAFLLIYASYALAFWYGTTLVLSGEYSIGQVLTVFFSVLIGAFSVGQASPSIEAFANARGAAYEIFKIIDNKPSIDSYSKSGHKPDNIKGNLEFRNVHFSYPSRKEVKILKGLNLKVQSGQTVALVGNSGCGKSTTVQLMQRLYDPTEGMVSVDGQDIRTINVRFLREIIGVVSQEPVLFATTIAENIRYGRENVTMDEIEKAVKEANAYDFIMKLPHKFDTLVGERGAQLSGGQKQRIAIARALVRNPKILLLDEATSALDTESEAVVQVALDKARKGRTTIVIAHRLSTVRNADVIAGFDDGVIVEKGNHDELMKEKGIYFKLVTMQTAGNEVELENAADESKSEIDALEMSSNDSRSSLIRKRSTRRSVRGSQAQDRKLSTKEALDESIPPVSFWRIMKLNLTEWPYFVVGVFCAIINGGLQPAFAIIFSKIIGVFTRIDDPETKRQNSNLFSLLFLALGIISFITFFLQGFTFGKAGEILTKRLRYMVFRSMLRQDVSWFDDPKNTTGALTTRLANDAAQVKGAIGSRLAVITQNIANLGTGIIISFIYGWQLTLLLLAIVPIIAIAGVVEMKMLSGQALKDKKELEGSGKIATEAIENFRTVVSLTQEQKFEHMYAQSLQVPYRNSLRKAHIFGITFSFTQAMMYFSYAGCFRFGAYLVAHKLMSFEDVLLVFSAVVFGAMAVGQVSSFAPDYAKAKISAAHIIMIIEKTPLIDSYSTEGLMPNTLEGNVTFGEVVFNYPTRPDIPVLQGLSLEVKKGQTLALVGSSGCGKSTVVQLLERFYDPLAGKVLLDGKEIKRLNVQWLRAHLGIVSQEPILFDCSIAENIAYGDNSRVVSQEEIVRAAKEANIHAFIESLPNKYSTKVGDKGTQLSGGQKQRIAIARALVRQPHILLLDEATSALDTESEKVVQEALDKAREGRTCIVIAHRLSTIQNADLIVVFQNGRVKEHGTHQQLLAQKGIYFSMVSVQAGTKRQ
Description: A549 taxol-resistant lung cancer cells were seeded in 6 well-plates at a final concentration of 2×10^5 cells per well and cultured for 24 h at 37° C. in an atmosphere containing 5% CO2. […] Subsequently, 5 mg/mL Rho123 was added to each well and the wells were incubated for another 1 h at 37° C. At the end of the incubation, the accumulation of Rho123 was stopped by washing the cells five times with ice-cold PBS. After cell centrifugation, cell pellets were resuspended in 400 μL PBS. […] All data acquisition and analyses were performed with CellQuest (BD Biosciences, San Jose, Calif., USA) in triplicate in three independent experiments, and the results were shown as the mean of fluorescence intensity.
A549 taxol-resistant lung cancer cells were seeded in 6 well-plates at a final concentration of 2×10^5 cells per well and cultured for 24 h at 37° C. in an atmosphere containing 5% CO2. […] All data acquisition and analyses were performed with CellQuest (BD Biosciences, San Jose, Calif., USA) in triplicate in three independent experiments, and the results were shown as the mean of fluorescence intensity.

[19] = Homo sapiens, DLD-1, 72 h, read-out: IC50 DLD-1 Bax-Bak+/+ colon cancer cells
[20] = Homo sapiens, DLD-1, 72 h, MTT, 3 days, read-out: IC50 DLD-1 Bax-Bak-/- colon cancer cells
[21] = Homo sapiens, HCT-116, 72 h, MTT, 3 days

## N.N.[Cl][Pt][Cl] [Cisplatin, cisplatin]
[1]; MTT, 3 days
  pIC50: 6.72
[2]
  Resistant Factor: 92.37
[2]; MTT, 3 days
  pIC50: 4.76
[3]
  IC50 DLD-1 Bax-Bak+/+ colon cancer cells: 1.994 µg/mL
[4]
  Resistant Factor: 1.84
[4]; MTT, 3 days
  IC50 DLD-1 Bax-Bak-/- colon cancer cells: 3.678 µg/mL
[5]
  pIC50: 5.91
[6]; A2780 cisplatin resistant versus cisplatin sensitive
  Resistant Factor: 14.92
[6]; MTT, 3 days, read-out: IC50 A2780 (Ovary) (Cisplatin resistant)
  pIC50: 4.73
[7]
  pIC50: 5.90
[8]; MTT, 3 days, read-out: IC50 SGC-7901 (Gastric) (Cisplatin resistant)
  pIC50: 5.21
[8]; SGC-7901 cisplatin resistant versus cisplatin sensitive
  Resistant Factor: 4.9

## COc1cccc2c1C(=O)c1c(O)c3c(c(O)c1C2=O)C[C@@](O)(C(=O)CO)C[C@@H]3O[C@H]1C[C@H](N)[C@H](O)[C@H](C)O1 [Doxorubicin, doxorubicin]
[1]; Homo sapiens, HCT-116, 72 h
  pIC50: 6.28
[2]; Homo sapiens, HCT-116, 72 h
  pIC50: 4.99
[2]
  Resistant Factor: 19.52
[3]; [19]
  IC50: 0.0523 µg/mL
[4]; [20]
  IC50: 0.539 µg/mL
[4]
  Resistant Factor: 10.31
[9]; Homo sapiens, MCF7, 72 h, MTT, 3 days, read-out: IC50 MCF-7 (Breast) (Doxorubicin resistant)
  IC50: 10 µg/mL (≈ 18.4 µM)
[9]; MCF-7 doxorubicin resistant versus doxorubicin sensitive
  Resistant Factor: 21.6

## COc1cc([C@@H]2c3cc4c(cc3[C@@H](O[C@@H]3O[C@@H]5CO[C@@H](C)O[C@H]5[C@H](O)[C@H]3O)[C@H]3COC(=O)[C@H]23)OCO4)cc(OC)c1O [Etoposide, etoposide]
[1]; [21]
  pIC50: 6.03
[2]; [21]
  pIC50: 4.97
[2]
  Resistant Factor: 11.28
[3]; [19]
  pIC50: 5.63
[4]; [20]
  pIC50: 4.39
[4]
  Resistant Factor: 17.12

## CN[C@@H]1C[C@H]2O[C@@](C)([C@@H]1OC)n1c3ccccc3c3c4c(c5c6ccccc6n2c5c31)C(=O)NC4 [Staurosporine, staurosporine]
[2]; [21]
  pIC50: 7.32
[2]
  Resistant Factor: 13.01
[4]
  Resistant Factor: 3.34

## CC(=O)O[C@H]1C(=O)[C@@]2(C)[C@H]([C@H](OC(=O)c3ccccc3)[C@]3(O)C[C@H](OC(=O)[C@H](O)[C@@H](NC(=O)c4ccccc4)c4ccccc4)C(C)=C1C3(C)C)[C@]1(OC(C)=O)CO[C@@H]1C[C@@H]2O [Taxol, paclitaxel (taxol)]
[10]; co-treated with 0.5 μM celastrol, read-out: mean IC50 of taxol in the presence of celastrol
  pIC50: 5.66
[10]; taxol alone, read-out: mean IC50 of taxol
  pIC50: 4.44
[1]; [21]
  pIC50: 7.71
[2]; [21]
  pIC50: 6.60
[2]
  Resistant Factor: 12.87
[3]; [19]
  pIC50: 8.37
[4]; [20]
  pIC50: < 7.00
[4]
  Resistant Factor: >23.2
[11]
  pIC50: 7.47
[12]
  Resistant Factor: 894.12
[12]; listed as taxol
  Resistant Factor: over 894
[12]; Homo sapiens, A549, 72 h, MTT, 3 days, read-out: IC50 A549 (Lung) (Taxol resistant)
  pIC50: 4.52
[13]
  pIC50: > 9.00
[14]
  Resistant Factor: >62000
[14]; listed as taxol
  Resistant Factor: over 62000
[14]; Homo sapiens, A2780, 72 h, MTT, 3 days, read-out: IC50 A2780 (Ovary) (Taxol resistant)
  pIC50: 4.21
[15]
  pIC50: > 9.00
[16]
  Resistant Factor: >31000
[16]; listed as taxol
  Resistant Factor: 31000
[16]; Homo sapiens, HCT-8, 72 h, MTT, 3 days, read-out: IC50 HCT-8 (Colon) (Taxol resistant)
  pIC50: 4.49
[17]
  pIC50: > 9.00
[18]; Homo sapiens, MCF7, 72 h, MTT, 3 days, read-out: IC50 MCF-7 (Breast) (Taxol resistant)
  pIC50: 5.30
[18]; MCF-7 taxol resistant versus taxol sensitive
  Resistant Factor: 5000

## COC(=O)[C@]1(C)CC[C@]2(C)CC[C@]3(C)C4=CC=C5C(=CC(=O)C(O)=C5C)[C@]4(C)CC[C@@]3(C)[C@@H]2C1 [pristimerin]
P-gp
  P-gp activity / Rho123 accumulation (Example 9): showed P-pg inhibition
